“Also recorded” adds a separate entry of the source. Bridges are numbered along the chain shown (N, C = ends). Where no end group is shown, it is not given here.
B1: AFP: Human alpha-fetoprotein isolated from the cord serum, purity not less than 99.8% (protein, UniProt P02771 19-609, looked up)
Alpha-fetoprotein: RTLHRNEYGIASILDSYQCTAEISLADLATIFFAQFVQEATYKEVSKMVKDALTAIEKPTGDEQSSGCLENQLPAFLEELCHEKEILEKYGHSDCCSQSEEGRHNCFLAHKKPTPASIPLFQVPEPVTSCEAYEEDRETFMNKFIYEIARRHPFLYAPTILLWAARYDKIIPSCCKAENAVECFQTKAATVTKELRESSLLNQHACAVMKNFGTRTFQAITVTKLSQKFTKVNFTEIQKLVLDVAHVHEHCCRGDVLDCLQDGEKIMSYICSQQDTLSNKITECCKLTTLERGQCIIHAENDEKPEGLSPNLNRFLGDRDFNQFSSGEKNIFLASFVHEYSRRHPQLAVSVILRVAKGYQELLEKCFQTENPLECQDKGEEELQKYIQESQALAKRSCGLFQKLGEYYLQNAFLVAYTKKAPQLTSSELMAITRKMAATAATCCQLSEDKLLACGEGAADIIIGHLCIRHEMTPVNPGVGQCCTSSYANRRPCFSSLVVDETYVPPAFSDDKFIFHKDLCQAQGVALQTMKQEFLINLVKQKPQITEEQLEAVIADFSGLLEKCCQGQEQEVCFAEEGQKLISKTRAALGV

Assays:
U-937 cells [1] = test: Modulation of AFP-induced apoptosis / growth suppression in U-937 cells ([3H]-thymidine incorporation); format: cell-based, human; details: for Effect on AFP-induced apoptosis in whole cells (in words): 15 min peptide pre-treatment, then 3 μM AFP, 24 h
Procedure: Cell proliferation was assessed by [^3H]-thymidine incorporation assay after 24 h of incubation.
The cells were treated for […] with various doses of the peptides and thereafter 3 μM pure human AFP was added to each well. Cell proliferation was assessed by the [^3H]-thymidine incorporation assay after 24 h of incubation.
The cells were treated for 15 min with various doses of the peptide and thereafter 3 μM pure human AFP was added to each well. Cell proliferation was assessed by the [^3H]-thymidine incorporation assay after 24 h of incubation.
U937 cells were plated out at a density of 4×10^3 cells/well in flat-bottom 96-well plates (Costar) in the complete medium and incubated for 2 h before reagent additions. Then cells were treated for 24 h with various doses of AFP dissolved in PBS and then assessed for proliferation. Cell treatment with cytotoxic IgM anti-Fas antibody CH-11 was performed as described. U937 cells were treated with 50 ng/ml of CH-11 antibodies for 18 h. Cells were left untreated or were treated with reagents for adequate time intervals and for the last 4 h of culture were subjected to their [^3H]-thymidine (1 Ci/mmol/well) incorporation. Experimental data were expressed as a percentage of [^3H]-thymidine incorporation in triplicate cultures relative to the medium control. Cells, cultivated without additions, were taken as a control.
(§1) To assess growth regulative activity of peptides various doses of peptides were added to the cells for 24 h and then the cells were assessed for proliferation, cell viability and DNA-fragmentation. To determine ability of peptides to modulate apoptosis induced by other factors Jurkat cells were treated with 20 ng/ml of CH-11 antibodies without ActD, Raji cells were treated with CH-11 in the presence of 0.5 μg/ml of ActD for 18 h. For induction of apoptosis with TNF-α, cells (Jurkat, MCF7 or U937) were treated for 24 h with 25 ng/ml of the cytokine and then were assessed for proliferation or viability as described above. HepG2 cells were pre-washed before TNF addition with fresh medium to remove endogenous growth factors.

[2] = test system: caspase-3 activation (DEVDase activity); test: Cyt c/AFP-mediated caspase-3 activation in cell-free cytosolic extracts of HepG2 cells; format: biochemical, human; details: for Effect on Cyt c/AFP-mediated caspase-3 activation (in words): cell-free HepG2 cytosolic extracts, 1 mM dATP; for Ability to affect AFP-induced Cyt c-dependent caspase activation: DEVDase activity, numbers are % abrogation
Procedure: Caspase activation was monitored by the cleavage of specific caspase-3 fluorogenic substrate DEVD-AMC.
(§2) HepG2, human hepatocarcinoma cells and human monoblastoma cell line U937 originated from American Type Culture Collection. Cell extracts were prepared by lysing cells in a hypotonic extraction buffer. To obtain the cytosolic S-100 fraction, the cell lysate was centrifuged for 1 h at 100,000×g. Extracts were either used immediately or frozen at −70° C. for later use.
(§3) Cell-free reactions were typically set up in 13-μl reaction volumes. Apoptosis was induced by addition of various doses of bovine heart cytochrom c and/or purified human AFP in the presence of 1 mM dATP. For 13-μl scale reactions, 10 μl of cell extract (˜2-4 mg/ml, as determined by the Bradford assay) were supplemented with 1 μl of dATP, 1 μl of Cyt c and/or AFP solutions in reaction buffer to receive necessary final concentration of reagents. To assess activity of peptides, various doses of peptides being dissolved in the reaction buffer together with 1 mM dATP were added to the cell extracts. To determine ability of the peptides to modulate apoptotic effects of Cyt c and AFP, peptides were added to extracts 10 min before cytochrome c or AFP. Control samples were incubated with the equal volume of the buffer (3 μl) without reagent addition. To initiate apoptosis, extracts were incubated at 37° C. for 40 min.
(§4) At the end of a caspase activation reaction, extract aliquots (5 μl) were supplemented with fluorogenic substrate DEVD-AMC (3 mM) and then incubated for definite time intervals (0.5-1 h) at 37° C. Reactions were terminated by dilution with addition of 2.0 ml of ice-cold 0.2 mM sodium phosphate buffer, pH 7.5, followed by a measurement of fluorescence with a Perkin Elmer MPF-44A (λexc=365 nm and λem=440 nm ) fluorometer. For each sample, the fluorescence intensity was normalized in the respect of cytosolic protein concentration. Caspase activation was presented as the ratio between the normalized fluorescence intensity of the sample and the corresponding value measured with a control sample.

[3] = test system: caspase-3 activation (DEVDase activity); test: dATP-dependent Cyt c-induced caspase-3 (DEVDase) activation in cell-free cytosolic extracts of HepG2 cells; format: biochemical, human; details: for Effect on high dose cytochrome c-mediated caspase activation (in words) / Effect on low dose cytochrome c-induced caspase activation (in words): cell-free extracts, 15 min pre-treatment; for Effect on high dose cytochrome c-mediated caspase activation (in words) / Effect on low dose cytochrome c-induced caspase activation (in words) / Effect on the high dose Cyt c-induced caspase activation: peptides 750 μM; for Effect on high dose cytochrome c-mediated caspase activation (in words): high dose (165 nM) cytochrome c; for Effect on low dose cytochrome c-induced caspase activation (in words): low dose (110 nM) cytochrome c; for Effect on the low dose Cyt c-induced caspase activation (abrogation) / Effect on the high dose Cyt c-induced caspase activation / Effect on the low dose Cyt c-induced caspase activation (stimulation, or result in words): DEVDase activity; for Effect on the low dose Cyt c-induced caspase activation (abrogation) / Effect on the high dose Cyt c-induced caspase activation: numbers are % abrogation; for Effect on the low dose Cyt c-induced caspase activation (stimulation, or result in words): numbers are % stimulation
Procedure: Peptides in the concentration of 750 μM were added to the cell extracts 15 min before the cytochrome c addition. Caspase activation was monitored by the cleavage of caspase-3-specific fluorogenic substrate DEVD-AMC.
as §2, §3, §4
To test ability of various peptides to affect caspase activation induced by exogenous cytochrome c in cell free system, we used cytosolic cell extracts of HepG2 cells. Aliquots of cell extracts were pre-treated with 750 μM of peptides for 15 min and thereafter various doses of cytochrome c was introduced in the reaction mixture to induce caspase activation.

U-937 cells [4] = test: Direct effect of peptides on U-937 cell proliferation ([3H]-thymidine incorporation); format: cell-based, human; details: peptides in dose 1 mM; U-937 cell proliferation vs control without additions
Procedure: Cells, cultivated without additions, were taken as a control.
as §1

U-937 cells [5] = test system: U-937 cells
[6] = test system: caspase-3 activation (DEVDase activity); details: cell-free system, no dATP
Procedure: as §2
Cell-free reactions were typically set up in 13-μl reaction volumes. Apoptosis was induced by addition of various doses of bovine heart cytochrom c and/or purified human AFP in the presence of 1 mM dATP. For 13-μl scale reactions, 10 μl of cell extract (˜2-4 mg/ml, as determined by the Bradford assay) were supplemented with 1 μl of dATP, 1 μl of Cyt c and/or AFP solutions in reaction buffer to receive necessary final concentration of reagents. […]
as §4, with “Caspase activation was presented as the ratio between the normalized fluorescence intensity of the sample and the corresponding value measured with a control sample.” left out

[7] = test system: caspase-3 activation (DEVDase activity); test: dATP-dependent Cyt c-induced caspase-3 (DEVDase) activation in cell-free cytosolic extracts of HepG2 cells; format: biochemical, human

Row | Molecule | Effect on AFP-induced apoptosis in whole cells (in words) (U-937 cells [1]) | Ability to affect AFP-induced Cyt c-dependent caspase activation ([2]; cell-free system) | Effect on high dose cytochrome c-mediated caspase activation (in words) [3] | Effect on low dose cytochrome c-induced caspase activation (in words) [3] | Effect on the high dose Cyt c-induced caspase activation ([3]; cell-free system) | Effect on the cell growth (% of control) (U-937 cells [4]) | Effect on the low dose Cyt c-induced caspase activation (stimulation, or result in words) ([3]; cell-free system) | other results
1 | RGDVLD [Linear 6-mer peptide from AFP] | did not revealed any apoptosis-regulating activity; also recorded: incapable of regulation | no effect | significant inhibition | significant abrogation | 80% abrogation | +10 % of control |  | Effect on AFP-induced apoptosis in whole cells (in words) (U-937 cells [1]; listed as p25): not in the whole cells; Effect on Cyt c/AFP-mediated caspase-3 activation (in words) [2]: able to abrogate; Effect on the low dose Cyt c-induced caspase activation (abrogation) ([3]; cell-free system): 30-50%; Retention of apocyclin-A's modulation of Cyt c-mediated caspase activation in a cell-free system (in words) ([3]; summary statement): partially retained this activity
2 | *Cys-Cys-His-Gly-Asp-Leu-Leu-Glu-Cys* (CCHGDLLEC; disulfide 1-9) [Cyclic peptide from human serum albumin] | no activity | no effect | no activity | no effect | no effect | +18 % of control | no effect | 
3 | *Cys-Gly-His-Gly-Asp-Leu-Leu-Glu-Cys* (CGHGDLLEC; disulfide 1-9 (inferred)) [Cyclic peptide from HSA, Cys substituted for Gly] | did not affect |  |  |  |  |  |  | 
4 | HGDLLE [Linear peptide from HSA] | did not affect | no effect | significant inhibition | significant abrogation | 90% abrogation | +20 % of control |  | Effect on the low dose Cyt c-induced caspase activation (abrogation) ([3]; cell-free system): 70% abrogation
5 | *Cys-*Cys-Arg-Gly-Asp-Val-Leu-Asp-Cys* [apocyclin-A] | completely abrogates; also recorded: completely cancelled | 70-80% | decreased; also recorded: significantly inhibited; also recorded: practically completely abrogated; also recorded: significant inhibition | significantly enhanced; also recorded: moderately supported; also recorded: notably enhanced; also recorded: same stimulation as full-length AFP molecule | 50-80% | +12 % of control | 30% stimulation | Stimulation of proliferation relatively to the medium control (U-937 cells [1]; 15-min pre-treatment with 1 mM, 24-h cultivation): 15%; Abrogation of the total anti-Fas-mediated apoptosis effect (U-937 cells [5]; 0.5 mM peptide, U-937 cells, various doses of CH-11): about 50%; Inhibition of anti-Fas-induced apoptosis (in words) (U-937 cells [5]; peptide concentration up to 1 mM, U-937 cells): more significant inhibition; Inhibition of anti-Fas-mediated cell death (in words) (U-937 cells [5]; summary statement, concentration not given): significantly inhibits; Effect on Cyt c/AFP-mediated caspase-3 activation (in words) [2]: abrogates; also recorded: cancelled; Inhibition of Cyt c/AFP-mediated caspase activation ([2]; cell-free system, combined cytochrome c/AFP treatment): 60-80%; Inhibition of caspase activation induced by high doses of endogenous cytochrome c ([3]; peptide 750 μM, cell-free system): 50-70%; Induction of DEVD-ase activity without dATP addition (in words) [6]: unable to induce
6 | *Cys-Gly-Arg-Gly-Asp-Val-Leu-Asp-Cys* | failed to abrogate; also recorded: no activity | no effect | no activity | no effect | no effect | −12 % of control | no effect | 
7 | B1 |  |  |  |  | 80% abrogation |  | 50% stimulation | Caspase activation in 'silent' cytosolic extracts with low suboptimal dose of exogenous cyt-c and dATP (in words) ([7]; AFP 7 μM, time-dependent, up to two hours): triggered the process of caspase activation; Caspase activation in the absence of dATP (in words) ([7]; S100 cytosolic extract, no dATP): did not induce any caspase activation; Induction of caspase-3-specific DEVDase activity in S100 cytosolic extract (in words) ([7]; protein 7 μM with dATP 1 mM, no exogenous cyt-c, up to 2 h): triggered dATP-dependent induction
